Calls of active or inactive are those of the source.
What was measured:
[1] = HepG2 cell cytotoxicity, dose response, cytotoxicity control, ATP luminescence, cherry-pick, activator set 2 (AID 1053143); type: functional, cell-based
[2] = cytotoxicity in OV-90 ovarian cancer cells, dose response, PAX8 inhibitor project, cell-based, plate reader, dry powder, SA8 (AID 743149); type: functional
[3] = NIH:OVCAR-3 ovarian cancer cell cytotoxicity, dose response, PAX8 inhibitor project, plate reader, dry powder samples (AID 743044); type: functional, cell-based
[4] = cytotoxicity dependent on PAX8, dose response, cell-based, plate reader, dry powder (AID 743049); type: functional
[5] = cytotoxicity in COV434 cells, dose response, cytotoxicity control for PAX8 inhibitor project, cell-based, plate reader, dry powder, SA7 (AID 743145); type: functional
[6] = IGROV1 ovarian cancer cell cytotoxicity, dose response, PAX8 inhibitor project, plate reader, dry powder samples (AID 743043); type: functional, cell-based; settings: IGROV-1
[7] = PAX2 cell-based inhibition, dose response, selectivity assay for PAX8 inhibitor project, plate reader, dry powder samples (AID 743048); type: functional;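 further: HEK293 cells carrying a WT1 promoter luciferase reporter driven by expressed Pax2; potency is for inhibition of Pax2 driven reporter signal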
[8] = target: Fructose-bisphosphate aldolase (Mycobacterium tuberculosis, UniProt P9WQA3); experiment: Fluorescence-based biochemical high throughput dose response assay for inhibitors of the fructose-bisphosphate aldolase (FBA) of M. tuberculosis.; type: functional
[9] = target: 1-phosphatidylinositol 4,5-bisphosphate phosphodiesterase beta-3 (Homo sapiens, UniProt Q01970); experiment: Fluorescence-based biochemical high throughput dose response assay to identify inhibitors of phospholipase C isozymes (PLC-B3).
[10] = target: 1-phosphatidylinositol 4,5-bisphosphate phosphodiesterase gamma-1 (Homo sapiens, UniProt P19174); experiment: Counterscreen for inhibitors of phospholipase C isozymes (PLC-B3): Fluorescence-based biochemical high throughput dose response assay to identify inhibitors of phospholipase C isozymes (PLC-gamma1).
[11] = inhibitors of CMV-promoter luciferase reporter, dose response, counter-screen for Pax8 inhibitor project, cell-based, HEK293, luminescence, dry powder (AID 743020); type: functional
Paired box protein Pax-8 = Paired box protein Pax-8 (Homo sapiens, UniProt Q06710); experiment: inhibitors of PAX8-driven TPO luciferase reporter, dose response, RMG-I cells, cherry-pick (AID 687027); type: functional, cell-based;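 further: luciferase reporter driven by Pax8 target thyroperoxidase promoter measured by SteadyGlo luminescence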
[12] = cytotoxicity in OVCAR8 ovarian cancer cells, dose response, PAX8 project, cell-based, plate reader, dry powder samples (AID 743197); type: functional; settings: OVCAR-8
[13] = IOSE-T80 ovarian epithelial cell cytotoxicity, dose response, cytotoxicity control for PAX8 inhibitor project, plate reader, dry powder samples (AID 743045); type: functional, cell-based
[14] = A2780 ovarian cancer cell cytotoxicity, dose response, cytotoxicity control, plate reader, dry powder samples (AID 743046); type: functional, cell-based
[15] = LGR2 antagonists, dose response, cell-based, HEK293, CRE-luciferase reporter, cherry pick (AID 743342); type: functional
[16] = MC4R antagonists, dose response, counter-screen for LGR2 antagonist project, cell-based, plate reader, cherry pick (AID 743444); type: functional;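 further: transfected HEK 293 cells stimulated with alpha-MSH peptide; potency of inhibitors of the alpha-MSH evoked signal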
[17] = A549 cell cytotoxicity, dose response, cytotoxicity control, plate reader, cherry-pick, antagonist series (AID 743412); type: functional, cell-based
[18] = Late stage assay provider results from the probe development effort to identify selective inhibitors of heat shock protein 90 (HSP90): Absorbance-based cell proliferation assay in MCF7 cells.; type: functional
[19] = Late stage assay provider results from the probe development effort to identify selective inhibitors of heat shock protein 90 (HSP90): Absorbance-based cell proliferation assay in SKBR3 cells.; type: functional; settings: SK-BR-3
[20] = Late stage assay provider results from the probe development effort to identify inhibitors of the Plasmodium falciparum M18 Aspartyl Aminopeptidase (M18AAP): radiolabel-based cell-based dose response assay to identify compounds that inhibit P. falciparum growth in RBCs, Set 2..; type: functional
Caspase-6 = target: T1, Caspase-6 (Homo sapiens, UniProt P55212); experiment: human caspase-6 inhibitors, dose response, biochemical, VEID-R110 fluorescence, dry powder retest (AID 743332)
T1 sequence (P55212 whole entry): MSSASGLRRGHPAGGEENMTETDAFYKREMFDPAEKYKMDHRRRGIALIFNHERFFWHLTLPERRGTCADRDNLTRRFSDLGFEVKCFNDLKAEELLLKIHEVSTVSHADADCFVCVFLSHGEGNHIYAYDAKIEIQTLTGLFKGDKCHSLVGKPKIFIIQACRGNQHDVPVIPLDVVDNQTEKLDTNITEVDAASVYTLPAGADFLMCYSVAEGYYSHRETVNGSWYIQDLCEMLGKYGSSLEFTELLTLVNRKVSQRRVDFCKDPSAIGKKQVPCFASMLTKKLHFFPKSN

Paired box protein Pax-8, sequence (Q06710 whole entry): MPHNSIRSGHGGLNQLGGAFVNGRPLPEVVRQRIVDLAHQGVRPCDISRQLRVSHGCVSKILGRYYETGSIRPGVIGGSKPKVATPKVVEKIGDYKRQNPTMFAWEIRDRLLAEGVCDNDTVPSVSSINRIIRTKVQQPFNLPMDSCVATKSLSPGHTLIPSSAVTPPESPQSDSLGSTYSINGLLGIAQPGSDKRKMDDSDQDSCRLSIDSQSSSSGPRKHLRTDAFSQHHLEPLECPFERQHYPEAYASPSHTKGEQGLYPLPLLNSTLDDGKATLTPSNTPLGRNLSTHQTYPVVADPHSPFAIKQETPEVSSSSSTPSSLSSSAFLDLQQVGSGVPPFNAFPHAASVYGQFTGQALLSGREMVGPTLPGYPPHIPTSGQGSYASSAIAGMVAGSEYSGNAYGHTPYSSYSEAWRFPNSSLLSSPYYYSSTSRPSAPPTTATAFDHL
1-phosphatidylinositol 4,5-bisphosphate phosphodiesterase gamma-1, sequence (P19174 whole entry): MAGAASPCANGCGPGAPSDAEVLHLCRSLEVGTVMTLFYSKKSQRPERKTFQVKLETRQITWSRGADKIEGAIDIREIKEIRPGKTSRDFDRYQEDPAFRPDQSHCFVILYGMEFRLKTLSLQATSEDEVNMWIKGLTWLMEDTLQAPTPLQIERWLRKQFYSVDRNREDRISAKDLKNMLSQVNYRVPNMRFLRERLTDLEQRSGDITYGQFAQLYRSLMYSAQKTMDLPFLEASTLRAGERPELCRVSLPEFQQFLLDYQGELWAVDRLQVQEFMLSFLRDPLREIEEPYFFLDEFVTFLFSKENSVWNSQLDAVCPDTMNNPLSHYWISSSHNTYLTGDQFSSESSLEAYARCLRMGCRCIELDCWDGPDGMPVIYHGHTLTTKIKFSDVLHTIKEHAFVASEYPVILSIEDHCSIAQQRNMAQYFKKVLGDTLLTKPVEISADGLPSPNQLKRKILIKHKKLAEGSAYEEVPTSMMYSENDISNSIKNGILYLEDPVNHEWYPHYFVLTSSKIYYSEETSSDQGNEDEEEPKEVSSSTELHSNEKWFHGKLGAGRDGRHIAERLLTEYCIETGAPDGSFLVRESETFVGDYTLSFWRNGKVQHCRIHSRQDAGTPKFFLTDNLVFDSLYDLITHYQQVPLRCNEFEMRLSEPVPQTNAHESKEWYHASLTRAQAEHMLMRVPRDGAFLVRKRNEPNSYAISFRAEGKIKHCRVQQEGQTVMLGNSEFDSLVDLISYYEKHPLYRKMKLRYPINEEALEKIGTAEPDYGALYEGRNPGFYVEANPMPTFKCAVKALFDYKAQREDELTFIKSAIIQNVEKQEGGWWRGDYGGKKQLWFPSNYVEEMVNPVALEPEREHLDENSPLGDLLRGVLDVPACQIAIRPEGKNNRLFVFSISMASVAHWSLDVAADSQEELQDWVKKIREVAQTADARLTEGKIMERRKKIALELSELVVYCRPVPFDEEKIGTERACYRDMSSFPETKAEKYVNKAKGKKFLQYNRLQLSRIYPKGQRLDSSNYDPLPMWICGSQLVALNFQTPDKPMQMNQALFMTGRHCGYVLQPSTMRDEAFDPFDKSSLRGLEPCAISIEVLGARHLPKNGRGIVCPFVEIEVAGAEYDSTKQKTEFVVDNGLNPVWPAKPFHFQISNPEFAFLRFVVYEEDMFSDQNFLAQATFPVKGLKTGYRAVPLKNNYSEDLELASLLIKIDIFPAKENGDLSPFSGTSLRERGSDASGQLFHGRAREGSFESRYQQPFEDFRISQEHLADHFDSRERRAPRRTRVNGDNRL
1-phosphatidylinositol 4,5-bisphosphate phosphodiesterase beta-3, sequence (Q01970 whole entry): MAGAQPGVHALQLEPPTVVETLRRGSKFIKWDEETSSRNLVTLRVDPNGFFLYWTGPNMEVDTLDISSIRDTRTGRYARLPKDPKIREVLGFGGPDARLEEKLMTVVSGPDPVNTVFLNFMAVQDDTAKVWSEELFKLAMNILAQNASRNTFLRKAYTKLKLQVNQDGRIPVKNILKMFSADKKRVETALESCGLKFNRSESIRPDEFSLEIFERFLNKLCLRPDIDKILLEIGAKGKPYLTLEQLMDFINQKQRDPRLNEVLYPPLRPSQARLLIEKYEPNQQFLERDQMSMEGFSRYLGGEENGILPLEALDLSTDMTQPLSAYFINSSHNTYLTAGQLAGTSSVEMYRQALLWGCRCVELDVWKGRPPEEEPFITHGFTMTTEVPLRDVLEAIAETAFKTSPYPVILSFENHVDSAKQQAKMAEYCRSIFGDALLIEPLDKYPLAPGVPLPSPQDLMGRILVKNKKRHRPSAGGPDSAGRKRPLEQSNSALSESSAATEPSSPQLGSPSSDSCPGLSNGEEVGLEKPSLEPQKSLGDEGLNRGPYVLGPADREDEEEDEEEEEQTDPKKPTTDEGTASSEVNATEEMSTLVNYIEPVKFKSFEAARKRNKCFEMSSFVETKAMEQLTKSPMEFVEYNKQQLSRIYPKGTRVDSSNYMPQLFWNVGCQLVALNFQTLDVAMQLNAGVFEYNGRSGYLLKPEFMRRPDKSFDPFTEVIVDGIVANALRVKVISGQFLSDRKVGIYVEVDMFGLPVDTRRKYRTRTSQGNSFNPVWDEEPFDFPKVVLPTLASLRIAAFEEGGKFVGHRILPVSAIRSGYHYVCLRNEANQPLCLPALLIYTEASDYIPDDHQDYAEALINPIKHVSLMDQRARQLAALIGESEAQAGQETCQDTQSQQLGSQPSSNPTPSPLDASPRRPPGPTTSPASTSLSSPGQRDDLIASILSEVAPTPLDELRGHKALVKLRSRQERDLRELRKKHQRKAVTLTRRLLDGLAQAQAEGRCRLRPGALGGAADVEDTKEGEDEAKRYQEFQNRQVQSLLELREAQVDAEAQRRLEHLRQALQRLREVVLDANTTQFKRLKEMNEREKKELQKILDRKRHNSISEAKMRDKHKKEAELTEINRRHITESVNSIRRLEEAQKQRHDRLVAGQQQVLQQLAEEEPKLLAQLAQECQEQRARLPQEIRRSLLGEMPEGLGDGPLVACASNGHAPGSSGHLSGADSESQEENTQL
Fructose-bisphosphate aldolase, sequence (P9WQA3 whole entry): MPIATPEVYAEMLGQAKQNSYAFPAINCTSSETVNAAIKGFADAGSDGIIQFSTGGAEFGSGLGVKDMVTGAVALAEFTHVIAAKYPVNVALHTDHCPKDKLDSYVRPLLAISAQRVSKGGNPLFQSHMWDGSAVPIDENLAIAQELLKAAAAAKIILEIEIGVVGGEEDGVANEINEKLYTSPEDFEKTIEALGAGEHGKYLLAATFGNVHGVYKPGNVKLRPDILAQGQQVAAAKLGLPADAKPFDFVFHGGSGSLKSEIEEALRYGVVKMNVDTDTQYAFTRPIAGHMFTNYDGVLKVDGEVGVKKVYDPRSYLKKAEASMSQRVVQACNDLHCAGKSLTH

In the case of `Cc1cc(NC(=O)c2ccco2)sc1C`, the AC50 [1] is reported as 26 µM (active).

In the case of `CN(C)CCCN(C(=O)CCOc1ccccc1)c1nc2c(F)cccc2s1`, the AC50 [2] is reported as 13.1 µM (active), the AC50 [3] is reported as 44.9 µM (active) and the AC50 [4] is reported as 10.8 µM (active). For the same molecule, the AC50 [5] was 22.8 µM (active), the AC50 [6] was 44.1 µM (active) and the AC50 [7] was > 100 µM (inactive).

With `CCOC(=O)N1CCc2cc(OC)c(OC)c3c2c1cc1cc(OC)c(OC)cc13` the IC50 [8] was 2.7 µM (active).

With `ONC(=Nc1ccc(Cl)cc1)c1ccccc1` the IC50 [9] was > 122 µM (inactive) and the IC50 [10] was > 122 µM (inactive).

For `C[C@@H]1CCCCO[C@H](CN(C)Cc2ccc(Cl)c(Cl)c2)[C@@H](C)CN([C@@H](C)CO)C(=O)c2cc(NC(=O)Nc3ccccc3)ccc2O1`, the AC50 [11] was 47.9 µM (active) and the AC50 (Paired box protein Pax-8) was 4.29 µM (active).

In the case of `O=C(Nc1ccccc1)N1CCCCN2[C@@H](CO)[C@@H](c3ccc(C#Cc4ccccc4)cc3)[C@@H]2C1`, the AC50 [3] is reported as 7.13 µM (active), the AC50 [12] is reported as 17.5 µM (active) and the AC50 [13] is reported as 19.3 µM (active). For the same molecule, the AC50 [14] was 13.7 µM (active).

For `C[C@H]1CCCCO[C@@H](CN(C)C(=O)Nc2ccc(F)cc2)[C@@H](C)CN([C@@H](C)CO)C(=O)c2cc(NC(=O)C3CCCCC3)ccc2O1`, the AC50 [15] was 3.88 µM (active), the AC50 [16] was 66 µM (active) and the AC50 [17] was 44.2 µM (active).

For `N#Cc1cc2ccc(OCCCCC(=O)O)cc2oc1=O`, the IC50 [18] was > 100 µM (inactive) and the IC50 [19] was > 100 µM (inactive).

For `Cc1cccc2c(NCCc3ccc(O)c(O)c3)ccnc12`, the IC50 [20] was 4.7 µM (active).

In the case of `N#Cc1ccc(C(=O)N2CCN(S(=O)(=O)c3ccccc3)CC2)cc1`, the AC50 (Caspase-6) is reported as > 70 µM (inactive).
